Experimental data from the supplement of paper PMC10307832.

How the values were obtained:
Halofuginone = compound: O=C(C[C@H]1NCCC[C@@H]1O)Cn1cnc2cc(Br)c(Cl)cc2c1=O (racemic) [Halofuginone]; experiment: relative viability (nuclei count vs DMSO), 5 days (fraction); higher = more cells survive
Procedure, shortened: (§1)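 Hoechst staining, done together with fixation and permeabilisation, marked nuclei for 4× imaging and MetaXpress counting. This followed 5 days without medium change after lung cancer cell lines, kept overnight at 37 °C in 1536-well plates, were pinned with five library-drug doses (not always all listed) spaced by √10 on vehicle-anchored plates. Viability is the ratio of treated-well to vehicle-well nuclei, expressed as a median across plates. Plates passed only at control CV below 25% with at least one doubling.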

Decitabine = compound: Nc1ncn([C@H]2C[C@H](O)[C@@H](CO)O2)c(=O)n1 [Decitabine]; experiment: as above
Procedure, shortened: as §1

Cell Line | relative viability (Halofuginone; 0.001 µM) | relative viability (Halofuginone; 0.003162 µM) | relative viability (Halofuginone; 0.01 µM) | relative viability (Halofuginone; 0.03162 µM) | relative viability (Halofuginone; 0.1 µM) | relative viability (Decitabine; 0.04 µM) | relative viability (Decitabine; 0.1265 µM) | relative viability (Decitabine; 0.4 µM) | relative viability (Decitabine; 1.265 µM) | relative viability (Decitabine; 2 µM, anchor plate) | relative viability (Decitabine; 4 µM)
NCI-H2023 | 0.98 | 1.05 | 0.931 | 0.516 | 0.082 | 0.678 | 0.516 | 0.249 | 0.206 | 0.227 | 0.172
A-427 | 1.02 | 1.04 | 0.89 | 0.989 | 0.921 | 0.668 | 0.612 | 0.322 | 0.322 | 0.558 | 0.292
NCI-H1793 | 1.01 | 0.811 | 0.904 | 1.04 | 0.557 | 0.715 | 0.756 | 0.707 | 0.498 | 0.547 | 0.398
NCI-H596 | 1.01 | 0.965 | 1.13 | 0.882 | 0.549 | 0.894 | 0.871 | 0.607 | 0.799 | 1.04 | 0.692
LU99A | 0.971 | 0.955 | 0.928 | 0.814 | 0.821 | 0.923 | 0.987 | 0.981 | 0.868 | 0.906 | 0.773
IA-LM | 0.995 | 0.94 | 0.944 | 0.862 | 0.354 | 0.509 | 0.431 | 0.272 | 0.192 | – | 0.158
NCI-H2009 | 1.04 | 1.18 | 0.948 | 0.883 | 0.597 | 0.837 | 0.706 | 0.504 | 0.349 | 0.387 | 0.343
